Source: patent EP3255433A1, “METHODS USING BLM AS A MARKER OF MULTIPLE MYELOMA” (priority 2016, dated 2017)
Where two headings read alike, the source gives them in different places.

Tests used:
[1] = tested on: human myeloma cell lines (HMCL); experiment: Cell growth inhibition of human myeloma cell lines (CellTiter-Glo Luminescent Cell Viability Assay); type: cell-based; details: 96 h, 4 days culture, 2 ng/ml interleukin six
Description: • Figure 1: BLM expression in normal and malignant plasma cells. BLM expression in normal BMPCs (N = 5), in MM cells of patients with intramedullary MM (N = 206) and in HMCLs (N = 26). Ordinate : BLM expression, as expressed in Affimetrix signal arbitrary units. Abscissa : from left to right : BMPCs (n=5); MMCs (n=206) and HMCLs (n=26). • Figure 2: BLM gene expression in the 7 MM molecular subgroups of the TT2-cohort. PR = proliferation, LB = low bone disease, MS = MMSET, HY = hyperdiploid, CD1 = cyclin D1/D3, CD2 = cyclin D1/D3, MF = MAF. * indicates higher score value compared to all other groups with P<0.05. Ordinate : BLM expression, as expressed in Affimetrix signal arbitrary units. […] At day 4 of culture, the viability was assessed by CellTiter-Glo® Luminescent Cell Viability Assay. […] Data are mean values ± standard deviation (SD) of five experiments determined on sextuplet culture wells. • Figure 4A : Growth inhibition of a plurality of MM cell lines in the presence of the ML216 BLM inhibitor. Ordinate : cell growth inhibition, as expressed as percent of control cells without ML216 :Cell lines tested : □ XG1 cells; ◊ XG7 cells; ○ XG12 cells; ◆XG25 cells; ● XG19 cells; + LP1 cells. […] At day 4 of culture, the viability and total cell counts were assessed and the percentage of CD138 viable plasma and non-myeloma cells was determined by flow cytometry. […]

[2] = tested on: primary myeloma cells of patients; experiment: Cytotoxicity on primary myeloma cells of patients (CD138 flow cytometry); type: cell-based, human; details: 4 days, IL-6 (1 ng/mL), co-cultured with bone marrow environment, n=7
Description: • Figure 1: BLM expression in normal and malignant plasma cells. BLM expression in normal BMPCs (N = 5), in MM cells of patients with intramedullary MM (N = 206) and in HMCLs (N = 26). Ordinate : BLM expression, as expressed in Affimetrix signal arbitrary units. Abscissa : from left to right : BMPCs (n=5); MMCs (n=206) and HMCLs (n=26). • Figure 2: BLM gene expression in the 7 MM molecular subgroups of the TT2-cohort. PR = proliferation, LB = low bone disease, MS = MMSET, HY = hyperdiploid, CD1 = cyclin D1/D3, CD2 = cyclin D1/D3, MF = MAF. * indicates higher score value compared to all other groups with P<0.05. Ordinate : BLM expression, as expressed in Affimetrix signal arbitrary units. Abscissa : from left to right: PR, LB, MS, HY, CD1, CD2 and MF . • Figure 3: BLM expression in MMCs could predict for shorter overall and event free survival in independent cohorts of patients. • Figure 3A : Patients of the HM cohort (n = 206) were ranked according to increasing BLM expression and a maximum difference in overall survival (OS) was obtained using the Maxstat R function. Upper curve : BLM^Low; Lower curve : BLM^High. Ordinate : Overall Survival (OS). Abscissa : Days from diagnosis. • Figure 3B : BLM expression is also associated with a shorter event free survival (EFS) in the HM cohort (n = 206). Upper curve : BLM^Low; Lower curve : BLM^High. Ordinate : […]). […] At day 4 of culture, the viability was assessed by CellTiter-Glo® Luminescent Cell Viability Assay. […] Data are mean values ± standard deviation (SD) of five experiments determined on sextuplet culture wells. • Figure 4A : Growth inhibition of a plurality of MM cell lines in the presence of the ML216 BLM inhibitor. Ordinate : cell growth inhibition, as expressed as percent of control cells without ML216 :Cell lines tested : □ XG1 cells; ◊ XG7 cells; ○ XG12 cells; ◆XG25 cells; ● XG19 cells; + LP1 cells. […] At day 4 of culture, the viability and total cell counts were assessed and the percentage of CD138 viable plasma and non-myeloma cells was determined by flow cytometry. […]

## O=C(Nc1ccc(F)c(C(F)(F)F)c1)Nc1nnc(-c2ccncc2)s1 [ML216]
[1]; median over 6 HMCL (XG-1, XG-7, XG-12, XG-25, XG-19, LP1), read-out: median IC50
  IC50: 4.1 µM
[1]; range over 6 HMCL, read-out: IC50 (range)
  IC50: 1.2 to 30 µM
[2]; 3 µM, P = 0.001
  reduction of the median number of viable myeloma cells: 54%
[2]; 6 µM, P < 0.001
  reduction of the median number of viable myeloma cells: 60%
[2]; 10 µM, P <0.001
  reduction of the median number of viable myeloma cells: 74%
